What was measured:
[1] = system: α-2B heterozygous (−/+) and homozygous (−/−) knockout mice; assay: Sulprostone sensitized pain (allodynia), α-2B knockout mice; assay type: in vivo, mouse; settings: intraperitoneal; heterozygous and homozygous α-2B knockout; clonidine 500 ug/kg, Compound 3 100 ug/kg
[2] = system: sulprostone-sensitized wild type mice; assay: Sulprostone sensitized pain (allodynia), wild type mice; assay type: in vivo, mouse; settings: intraperitoneal, wild type mice; clonidine 500 ug/kg, Compound 3 100 ug/kg
Experimental: Non-specific α-adrenergic agonists were assayed in α-2A receptor deficient (“knockout”) mice (Hein et al., supra, 1999) using a mouse model of sulprostone sensitized pain in which allodynia is evoked by intrathecal administration of a selective prostaglandin E2 receptor agonist to conscious mice essentially as described in Minami et al., Pain 57:217-223 (1994). In this model, the pain response to stroking the flank with a paint brush is scored eight times over a 35 minute period starting 15 minutes following spinal administration of sulprostone and intrathecal or intraperitoneal administration of drug or control vehicle. Sulprostone elicits a “pain” score of 12-13 on a 16-point scale.
Assays for allodynia in wild type and α-2A knockout mice were performed essentially according to the method of Yaksh and Harty, J. Pharmacology Exp. Ther. 244: 501-507 (1998). In brief, mice were divided into groups of 5-6 animals. Control mice were administered 5 ul DMSO while treated animals were injected with 5 ul DMSO containing various doses of the indicated agent. After intrathecal injection, each mouse was placed in an individual 13×8.5×13 cm Plexiglass enclosure with wood chips on the floor for observation. Allodynia was assessed once every five minutes over a 50 minute time period, with response recorded eight times in the 15 to 50 minute time frame. Allodynia was assessed by light stroking of the flank of the mice with a small paintbrush and ranked as follows: 0, no response; 1, mild squeaking with attempts to move away from the stroking probe; and 2, vigorous squeaking evoked by the stroking probe, biting at the probe and strong efforts to escape. The eight scores for each animal were added together, and the mean for the group determined to give an average total score.

mice = assay: Sedative effects in mice (exploratory activity, digicom analyzer chamber); assay type: in vivo, mouse; settings: intraperitoneal, wild type mice; clonidine 500 ug/kg, Compound 3 100 ug/kg
Experimental: (§1) Sedative effects were analyzed by assessing exploratory behavior in a darkened chamber as follows. Mice were weighed, and test compound administered by intrathecal injection in a volume of 5 μl or by intraperitoneal injection in 1 ml/kg volume at the indicated dose. At predetermined time points corresponding with analgesia measurements 5 to 30 minutes following the injection, the animal's activity was determined automatically by placing the mouse in a digicom analyzer chamber (Omnitech Electronic; Columbus, Ohio). The digicom analyzer chamber contains photocell beams criss-crossing the box that are broken as the animal moves around; the chamber was modified for mice by raising the level of the floor. Computer analysis of total animal movement proceeded over a 5-minute time period. Any given animal was used at most twice for this protocol, as learned behavior can affect the data. All animals received at least two weeks rest between studies.

Male Sprague-Dawley rats = assay: Sedative effects in rats (total activity, digicom analyzer chamber); assay type: in vivo, rat; settings: single intraperitoneal dose 1 to 1000 μg/kg
Experimental: as §1
Male Sprague-Dawley rats that were not subject to surgery were used for assessment of sedative effects. Rats were weighed and compound administered by intravenous or intraperitoneal injection or given orally at the indicated dose. At a predetermined time point 5 to 30 minutes following injection, the animal's activity was determined automatically by placing the rat in a digicom analyzer chamber (Omnitech Electronic). Total activity was analyzed as described above.

O=C1c2ccccc2CCC1Cc1c[nH]c(=S)[nH]1 (racemic) [Compound 3]
analgesic effect in α-2B knockout mice [1]: not analgesic | sulprostone-induced tactile allodynia [2]: alleviated sulprostone-induced tactile allodynia | concomitant sedation (mice): without concomitant sedation | non-sedating dose relative to doses producing a robust reversal of allodynia (Male Sprague-Dawley rats): > 100 fold
